In patent US9868766B2, “Peptides as oxytocin agonists” (Hoffmann-La Roche Inc., priority 2012, dated 2018):
Positions of bridges follow the written chain, without caps; N, C: chain ends. Non-standard residues stand in square brackets, D forms with d. Residues, ends and D or L forms follow the SMILES beside them. Hyp = O=C(O)[C@@H]1C[C@@H](O)CN1; Cha = N[C@@H](CC1CCCCC1)C(=O)O; Tle = CC(C)(C)[C@H](N)C(=O)O; Nle = CCCC[C@H](N)C(=O)O; Dab = NCC[C@H](N)C(=O)O; Sar = CNCC(=O)O

Assays:
Type in all cases: cell-based
[1] = molecular target: T1, human V1a receptor (Homo sapiens, UniProt P37288); assay: Calcium flux assay (FLIPR), agonist mode, CHO cells expressing human V1a; details: CHO cells stably expressing human V1a; calcium flux; read-out: hV1a EC50
T1 construct: expressed in transfected cells
Text: (§1) Chines Hamster Ovary (CHO) cells were transfected with expression plasmids encoding either the human V1a, the human Oxytocin (OTR) or the humanV2 receptor, the later in combination with the chimeric Gqs5 G protein to redirect the signal to Calcium flux. Stable cells were cloned by limiting dilution to yield monoclonal cell lines expressing either human V1a, human V2+Gqs5 or human OTR receptors and selected based on functional responses detected on a fluorometric imaging plate reader (FLIPR) detecting Calcium flux in the cell after receptor activation. The stable cell lines were grown in F-12 K Nutrient Mixture (Kaighns Modification), containing 10% foetal bovine serum (FBS), 1% penicillin-streptomycin, 1% L-glutamate, 200 ug/ml Geneticin at 37° C. in a 10% CO2 incubator at 95% humidity.
(§2) On the afternoon before the assay, cells were plated at a density of 50,000 cells/well into black 96 well plates with clear bottoms to allow cell inspection and fluorescence measurements from the bottom of each well. The density of cells was sufficient to yield a confluent monolayer the next day. Hanks balanced salt solution, without phenol red, containing 20 mM HEPES (pH 7.3) and 2.5 mM probenecid (assay buffer) was prepared fresh for each experiment. Compound dilutions were made using a Beckman Biomek 2000 laboratory automation workstation, in assay buffer containing 1% DMSO. The dye-loading buffer consisted of a final concentration of 2 μM Fluo-4-AM (dissolved in DMSO and pluronic acid) in assay buffer. The existing culture media was removed from the wells and 100 μl of the dye-loading buffer was added to each well and incubated for approximately 60 min at 37° C. in a 5% CO2 incubator at 95% humidity. Once dye-loaded, the cells were washed thoroughly on an Embla cell washer with the assay buffer to remove any unincorporated dye. Exactly 100 μl assay buffer was left in each well.
(§3) Each 96 well plate containing dye-loaded cells was placed into the FLIPR machine and the laser intensity set to a suitable level to detect low basal fluorescence. To test compounds as agonists, 25 μl diluted compound was added to the plate 10 seconds into the fluorescent measurements and fluorescent response was recorded for 5 minutes. The fluorescence data was normalized to the endogenous full agonist dose-response set at 100% for the maximum response and 0% for the minimum. Each agonist concentration-response curve was constructed using a four parameter logistic equation with Microsoft Excel XLFit as follows: Y=Minimum+((Maximum−Minimum)/(1+10^(Log EC50-X)nH)), where y is the % normalized fluorescence, minimum is the minimum y, maximum is the maximum y, log EC50 is the log10 concentration which produces 50% of the maximum induced fluorescence, x is the log10 of the concentration of the agonist compound and H is the slope of the curve (the Hill Coefficient). The maximum value gives the efficacy of the agonist test compound in percentage. The concentration of agonist that produced a half-maximal response is represented by the EC50 value, the logarithm of which yielded the pEC50 value.

[2] = molecular target: T2, human V2 receptor (Homo sapiens, UniProt P30518); assay: Calcium flux assay (FLIPR), agonist mode, CHO cells expressing human V2 + Gqs5; details: for EC50: CHO cells stably expressing human V2 + chimeric Gqs5, calcium flux, read-out: hV2 EC50; for hV2 efficacy (%) / Emax: maximum response normalized to endogenous full agonist = 100%; for Emax: CHO, read-out: hV2 efficacy (%)
T2 construct: expressed in transfected cells
Text: as §1, §2, §3

[3] = molecular target: T3, human Oxytocin (OTR) receptor (Homo sapiens, UniProt P30559); assay: Calcium flux assay (FLIPR), agonist mode, CHO cells expressing human OTR; details: for EC50: CHO cells stably expressing human OTR, calcium flux, read-out: hOT EC50; for Emax: CHO, read-out: hOT efficacy (%)
T3 construct: expressed in transfected cells
T3 sequence (P30559 1-389): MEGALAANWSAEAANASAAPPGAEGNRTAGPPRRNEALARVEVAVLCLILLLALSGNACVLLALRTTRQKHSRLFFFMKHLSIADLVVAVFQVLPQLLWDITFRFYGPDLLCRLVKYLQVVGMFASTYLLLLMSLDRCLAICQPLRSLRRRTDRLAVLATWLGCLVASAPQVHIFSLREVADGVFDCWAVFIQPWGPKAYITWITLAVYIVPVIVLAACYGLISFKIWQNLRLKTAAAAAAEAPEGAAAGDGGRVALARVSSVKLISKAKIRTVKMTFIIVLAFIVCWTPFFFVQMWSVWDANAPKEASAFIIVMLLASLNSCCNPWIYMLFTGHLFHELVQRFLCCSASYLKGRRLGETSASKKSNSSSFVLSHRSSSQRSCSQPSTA
In short: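 Monoclonal CHO cells stably expressing the receptor were loaded with 2 μM Fluo-4-AM in HBSS with 20 mM HEPES (pH 7.3) and 2.5 mM probenecid. Compound was added 10 s into reading and fluorescence followed for 5 min.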

[4] = maximum response normalized to endogenous full agonist = 100%

T1 sequence (P37288 whole entry): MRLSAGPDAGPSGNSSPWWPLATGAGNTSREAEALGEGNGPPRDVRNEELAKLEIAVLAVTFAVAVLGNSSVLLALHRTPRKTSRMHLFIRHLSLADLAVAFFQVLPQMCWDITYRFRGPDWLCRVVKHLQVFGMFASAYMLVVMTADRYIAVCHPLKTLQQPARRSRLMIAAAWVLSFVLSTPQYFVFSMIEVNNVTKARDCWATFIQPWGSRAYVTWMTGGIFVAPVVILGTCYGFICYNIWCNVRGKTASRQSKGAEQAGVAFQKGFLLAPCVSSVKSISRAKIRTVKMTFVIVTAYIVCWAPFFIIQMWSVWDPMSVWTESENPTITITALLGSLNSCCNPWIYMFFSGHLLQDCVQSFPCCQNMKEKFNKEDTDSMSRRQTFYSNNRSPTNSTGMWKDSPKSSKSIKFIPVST
T2 sequence (P30518 whole entry): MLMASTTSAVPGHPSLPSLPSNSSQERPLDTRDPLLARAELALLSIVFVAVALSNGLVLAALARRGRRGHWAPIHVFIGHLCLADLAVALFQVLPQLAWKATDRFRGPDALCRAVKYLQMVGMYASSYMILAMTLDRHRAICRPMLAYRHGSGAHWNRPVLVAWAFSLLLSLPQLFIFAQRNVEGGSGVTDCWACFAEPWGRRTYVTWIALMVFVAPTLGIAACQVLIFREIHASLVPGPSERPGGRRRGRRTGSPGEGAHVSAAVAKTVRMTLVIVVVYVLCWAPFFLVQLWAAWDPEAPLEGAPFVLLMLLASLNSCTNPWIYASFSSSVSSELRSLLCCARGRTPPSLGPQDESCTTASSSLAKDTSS

EC50 [1] [nM] | EC50 [2] [nM] | hV2 efficacy (%) [2] [%] | EC50 [3] [nM] | Emax [3, 4] [%] | Emax [2] [%] | hOT efficacy (%) [3, 4] [%] | SMILES
> 10000 | 142 | 104 | 6 | 119 | – | – | CC[C@H](C)[C@@H]1NC(=O)[C@H](Cc2ccc(O)cc2)NC(=O)CNC(=O)CC[C@@H](C(=O)N(C)CC(=O)N[C@@H](CCN)C(=O)NCC(N)=O)NC(=O)[C@H](CC(N)=O)NC(=O)[C@H](CCC(N)=O)NC1=O [Example 30] (GYIQNE[Sar][Dab]G-NH2; lactam N-6)
> 10000 | 2710 | – | 9 | 131 | 91 | – | CC[C@H](C)[C@@H]1NC(=O)[C@H](Cc2ccc(O)cc2)NC(=O)CNC(=O)CC[C@@H](C(=O)N(C)CC(=O)N[C@@H](CCC(N)=O)C(=O)NCC(N)=O)NC(=O)[C@H](CC(N)=O)NC(=O)[C@H](CCC(N)=O)NC1=O [Example 31] (GYIQNE[Sar]QG-NH2; lactam N-6)
> 10000 | 1990 | – | 4 | 119 | 106 | – | CC[C@H](C)[C@@H]1NC(=O)[C@H](Cc2ccc(O)cc2)NC(=O)CNC(=O)CC[C@@H](C(=O)N(C)CC(=O)N[C@@H](Cc2ccc(O)cc2)C(=O)NCC(N)=O)NC(=O)[C@H](CC(N)=O)NC(=O)[C@H](CCC(N)=O)NC1=O [Example 32] (GYIQNE[Sar]YG-NH2; lactam N-6)
> 27000 | 3820 | – | 2 | 119 | 101 | – | CC[C@H](C)[C@H](NC(=O)CN(C)C(=O)[C@@H]1CCC(=O)NCC(=O)N[C@@H](Cc2ccc(O)cc2)C(=O)N[C@@H]([C@@H](C)CC)C(=O)N[C@@H](CCC(N)=O)C(=O)N[C@@H](CC(N)=O)C(=O)N1)C(=O)NCC(N)=O [Example 33] (GYIQNE[Sar]IG-NH2; lactam N-6)
> 10000 | 145 | 120 | 10 | – | – | 136 | CC[C@H](C)[C@@H]1NC(=O)[C@H](Cc2ccc(O)cc2)NC(=O)CNC(=O)CC[C@@H](C(=O)N(C)CC(=O)N[C@@H](Cc2c[nH]cn2)C(=O)NCC(N)=O)NC(=O)[C@H](CC(N)=O)NC(=O)[C@H](CCC(N)=O)NC1=O [Example 34] (GYIQNE[Sar]HG-NH2; lactam N-6)
> 27000 | 3710 | – | 0.4 | 122 | 111 | – | CC[C@H](C)[C@@H]1NC(=O)[C@H](Cc2ccc(O)cc2)NC(=O)CNC(=O)CC[C@@H](C(=O)N(C)CC(=O)N[C@@H](CC2CCCCC2)C(=O)NCC(N)=O)NC(=O)[C@H](CC(N)=O)NC(=O)[C@H](CCC(N)=O)NC1=O [Example 39] (GYIQNE[Sar][Cha]G-NH2; lactam N-6)
> 27000 | 2190 | – | 0.4 | 124 | 117 | – | CCCC[C@H](NC(=O)CN(C)C(=O)[C@@H]1CCC(=O)NCC(=O)N[C@@H](Cc2ccc(O)cc2)C(=O)N[C@@H]([C@@H](C)CC)C(=O)N[C@@H](CCC(N)=O)C(=O)N[C@@H](CC(N)=O)C(=O)N1)C(=O)NCC(N)=O [Example 40] (GYIQNE[Sar][Nle]G-NH2; lactam N-6)
> 27000 | 1230 | – | 0.5 | 117 | 112 | – | CC[C@H](C)[C@@H]1NC(=O)[C@H](Cc2ccc(O)cc2)NC(=O)CNC(=O)CC[C@@H](C(=O)N(C)CC(=O)N[C@H](C(=O)NCC(N)=O)C(C)(C)C)NC(=O)[C@H](CC(N)=O)NC(=O)[C@H](CCC(N)=O)NC1=O [Example 44] (GYIQNE[Sar][Tle]G-NH2; lactam N-6)
> 27000 | 3810 | – | 0.6 | 113 | 91 | – | CC[C@H](C)[C@@H]1NC(=O)[C@H](Cc2ccc(O)cc2)NC(=O)CNC(=O)CC[C@@H](C(=O)N2C[C@H](O)C[C@H]2C(=O)N[C@@H](CC(C)C)C(=O)NCC(N)=O)NC(=O)[C@H](CC(N)=O)NC(=O)[C@H](CCC(N)=O)NC1=O [Example 45] (GYIQNE[Hyp]LG-NH2; lactam N-6)
